Here are results for 4 compounds from patent US7935672B2, “Derivatives of genkwanin and sakuranetin, cosmetic and therapeutic use thereof and preparation method of same” (priority 2004, dated 2011).

For data set [1], the system named is human blood cells. Briefly: human blood cells, proliferation and expression of membrane markers (Tests H). It is filed as cell-based. Conditions: for proliferation of the blood cells of the immune response: 24 or 48 hours at 37° C.
The test system of data set [2] is IL-2. Briefly: IL-2 content of cell supernatants after PHA or SEB stimulation (Tests H). Conditions: following stimulation with PHA or SEB; FIGS. 2 and 3.
Data set [3] deals with leukoblasts. Briefly: antiblastic effect, activity against cancers and leukemias (method not described).
The nature of data set [4]: side effects on topical, oral or injected administration (method not described). Conditions: administered topically, orally or by injection.
In data set [5] the test system is lymphoblasts. The conditions noted are these: serious immune disorders; FR 2 510 580 A, FR 2 597 751 A, Lin et al. 2001; cited from earlier work.

Take `COc1cc(OC2OC(COC3OCC(O)C(O)C3O)C(O)C(O)C2O)c2c(=O)cc(-c3ccc(O)cc3)oc2c1` [Ex. 2, 5-O-β-D-primeverosyl-genkwanin]: in data set [1], the “antibody production for the B lymphocytes” value is given as “decrease”, the “class II MHCs for dendritic cells” value is listed as “decrease” and the “proliferation of the blood cells of the immune response” value is reported as “do not induce proliferation”. Further, the IL-2 production entry in data set [2] is on record as “inhibition”.
As for `CCOc1ccc(-c2cc(=O)c3c(OC4OC(COC5OC(CO)C(O)C(O)C5O)C(O)C(O)C4O)cc(OC)cc3o2)cc1` [Ex. 8, 5-[O-6-(D-glucopyranosyl)-β-D-glucopyranosyl]oxy-2-(4-ethoxyphenyl)-7-methoxy-4H-1-benzopyran-4-one], the “activity against certain acute cancers and leukemias (antiblastic effect) and chronic myeloid leukemia” value in data set [3] is recorded as “particularly active”. The harmful side effects entry in data set [4] is reported as “virtual absence”.
Turning to `COc1cc(O[C@@H]2O[C@H](CO[C@@H]3OC[C@@H](O)[C@H](O)[C@H]3O)[C@@H](O)[C@H](O)[C@H]2O)c2c(=O)cc(-c3ccc(O)cc3)oc2c1` [5-O-β-D-primeverosyl-genkwanin], the “effect on lymphoblasts formed in hyperplasia” value in data set [5] is “destroys the lymphoblasts formed”.
As for `CCOc1ccc(C2CC(=O)c3c(cc(OC)cc3OC3OC(COC4OC(CO)C(O)C(O)C4O)C(O)C(O)C3O)O2)cc1` [Ex. 5, 2,3-dihydro-5-[O-6-(D-gluocpyranosyl)-β-D-glucopyranosyl]oxy-2-(4-ethoxyphenyl)-7-methoxy-4H-1-benzopyran-4-one], in data set [1], the “antibody production for the B lymphocytes” value was “decrease”, the “class II MHCs for dendritic cells” value is “decrease” and the “proliferation of the blood cells of the immune response” value was “do not induce proliferation”. Moreover, the IL-2 production entry in data set [2] is “inhibition”.
